US20090069320A1, “Substituted 4-Amino-Quinazoline Compounds with Metabotropic Glutamate Receptor Regulating Activity and Uses Thereof” (Gruenenthal GmbH, priority 2006, published 2009)

Biological target: T1, mGluR5 receptor (Sus scrofa, UniProt I3LUI7)
T1 construct: 450 μg of protein from brain homogenate with 5 nM ^3[H]-MPEP; from tissue; host or cells: pig brain halves without medulla, cerebellum and pons
Assay: [3H]-MPEP mGluR5 receptor binding assay (pig brain homogenate)
Conditions: 10 μM compound, 5 nM [3H]-MPEP; for inhibition at 10 µM: read-out: % Inhibition of mGluR5 Receptor (pig) [^3H]-MPEP Bond at 10 μM
Procedure, shortened: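 Compounds at 10 μM competed with 5 nM [3H]-MPEP for binding to pig brain membranes (450 μg protein) for 60 min at room temperature in pH 8.0 Hepes buffer. Bound radioactivity was collected on glass-fibre filters and read by β-counting, with 10 μM unlabelled MPEP giving non-specific binding.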

T1 sequence (I3LUI7 19-1212): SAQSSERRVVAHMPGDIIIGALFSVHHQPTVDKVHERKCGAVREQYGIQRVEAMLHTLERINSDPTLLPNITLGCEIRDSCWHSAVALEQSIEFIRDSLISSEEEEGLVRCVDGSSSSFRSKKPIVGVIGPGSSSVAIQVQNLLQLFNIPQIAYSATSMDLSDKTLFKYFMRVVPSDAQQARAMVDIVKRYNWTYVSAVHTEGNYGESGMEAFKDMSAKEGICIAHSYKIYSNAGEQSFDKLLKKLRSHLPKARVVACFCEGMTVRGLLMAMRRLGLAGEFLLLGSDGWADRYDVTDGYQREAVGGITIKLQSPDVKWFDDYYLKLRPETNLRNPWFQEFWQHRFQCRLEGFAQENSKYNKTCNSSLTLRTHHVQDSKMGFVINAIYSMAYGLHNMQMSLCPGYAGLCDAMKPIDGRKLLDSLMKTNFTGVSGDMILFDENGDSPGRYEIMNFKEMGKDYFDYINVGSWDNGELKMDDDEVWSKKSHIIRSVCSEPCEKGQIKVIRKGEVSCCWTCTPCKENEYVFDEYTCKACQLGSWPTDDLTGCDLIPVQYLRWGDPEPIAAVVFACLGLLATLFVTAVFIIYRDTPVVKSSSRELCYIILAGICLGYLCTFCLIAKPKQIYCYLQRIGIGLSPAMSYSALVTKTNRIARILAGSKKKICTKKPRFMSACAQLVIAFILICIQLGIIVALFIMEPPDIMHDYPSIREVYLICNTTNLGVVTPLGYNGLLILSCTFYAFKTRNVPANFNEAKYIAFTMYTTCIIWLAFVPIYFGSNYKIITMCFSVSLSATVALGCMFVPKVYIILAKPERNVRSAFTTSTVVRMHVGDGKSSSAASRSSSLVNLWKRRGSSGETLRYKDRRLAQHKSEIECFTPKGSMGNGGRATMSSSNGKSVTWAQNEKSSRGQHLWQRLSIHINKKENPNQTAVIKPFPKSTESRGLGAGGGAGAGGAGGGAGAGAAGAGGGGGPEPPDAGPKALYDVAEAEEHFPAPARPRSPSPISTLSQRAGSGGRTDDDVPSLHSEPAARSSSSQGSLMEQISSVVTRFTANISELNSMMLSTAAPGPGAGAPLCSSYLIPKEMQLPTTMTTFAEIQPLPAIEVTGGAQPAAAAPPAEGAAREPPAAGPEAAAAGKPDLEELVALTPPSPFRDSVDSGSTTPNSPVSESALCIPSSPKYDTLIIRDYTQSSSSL

| Compound | inhibition at 10 µM [%] | % Inhibition of mGluR5 Receptor (pig) [^3H]-MPEP Bond at 10 μM [%] |
| --- | --- | --- |
| Cc1cc(C(=O)N(Cc2cc(-c3ccc4nc(C)nc(NC5CC5)c4c3)ccc2F)C2CC2)n(C)n1 [Example 542, N-cyclopropyl-N-(5-(4-(cyclopropylamino)-2-methylquinazolin-6-yl)-2-fluorobenzyl)-1,3-dimethyl-1H-pyrazole-5-carboxamide] | 33 | – |
| Cc1nc(NC2CC2)c2cc(-c3cccc(CN(C(=O)Cc4ccccc4)C4CC4)c3)ccc2n1 [Example 544, N-cyclopropyl-N-(3-(4-(cyclopropylamino)-2-methylquinazolin-6-yl)benzyl)-2-phenylacetamide] | 66 | – |
| CCCCC(=O)N(C)Cc1cc(-c2ccc3ncnc(NCc4ccccc4)c3c2)ccc1F [Example 549, N-(5-(4-(benzylamino)quinazolin-6-yl)-2-fluorobenzyl)-N-methyl pentanamide] | – | 32 |
| Cc1nc(NC2CC2)c2cc(-c3ccc(F)c(CN(C(=O)c4ccccc4)C4CC4)c3)ccc2n1 [Example 550, N-cyclopropyl-N-(5-(4-(cyclopropylamino)-2-methylquinazolin-6-yl)-2-fluorobenzyl)benzamide] | 40 | – |
| COCC(=O)N(C)Cc1cc(-c2ccc3ncnc(NCc4ccccc4)c3c2)ccc1F [Example 557, N-(5-(4-(benzylamino)quinazolin-6-yl)-2-fluorobenzyl)-2-methoxy-N-methylacetamide] | 42 | – |
| COc1ccc(C(=O)N(Cc2cc(-c3ccc4nc(C)nc(NC5CC5)c4c3)ccc2F)C2CC2)cc1OC [Example 558, N-cyclopropyl-N-(5-(4-(cyclopropylamino)-2-methylquinazolin-6-yl)-2-fluorobenzyl)-3,4-dimethoxybenzamide] | 42 | – |
| Cc1nc(NC2CC2)c2cc(-c3ccc(F)c(CN(C(=O)c4cccc(F)c4)C4CC4)c3)ccc2n1 [Example 566, N-cyclopropyl-N-(5-(4-(cyclopropylamino)-2-methylquinazolin-6-yl)-2-fluorobenzyl)-3-fluorobenzamide] | 61 | – |
| Cc1nc(NC2CC2)c2cc(-c3ccc(F)c(CN(C(=O)c4c(F)c(F)c(F)c(F)c4F)C4CC4)c3)ccc2n1 [Example 574, N-cyclopropyl-N-(5-(4-(cyclopropylamino)-2-methylquinazolin-6-yl)-2-fluorobenzyl)-2,3,4,5,6-pentafluorobenzamide] | 106 | – |
| CNc1ncnc2ccc(-c3ccc(F)c(CN(C)S(=O)(=O)C(C)C)c3)cc12 [Example 578, N-(2-fluoro-5-(4-(methylamino)quinazolin-6-yl)benzyl)-N-methylpropane-2-sulfonamide] | 76 | – |
| Cc1nc(NC2CC2)c2cc(-c3ccc(F)c(CN(C(=O)c4cccc(C(F)(F)F)c4)C4CC4)c3)ccc2n1 [Example 582, N-cyclopropyl-N-(5-(4-(cyclopropylamino)-2-methylquinazolin-6-yl)-2-fluorobenzyl)-3-(trifluoromethyl)benzamide] | 80 | – |
| CNc1ncnc2ccc(-c3ccc(F)c(CN(C)C(=O)c4c(F)c(F)c(F)c(F)c4F)c3)cc12 [Example 585, 2,3,4,5,6-pentafluoro-N-(2-fluoro-5-(4-(methylamino)quinazolin-6-yl)benzyl)-N-methylbenzamide] | 70 | – |
| CNc1ncnc2ccc(-c3ccc(F)c(CN(C)S(=O)(=O)Cc4ccccc4)c3)cc12 [Example 586, N-(2-fluoro-5-(4-(methylamino)quinazolin-6-yl)benzyl)-N-methyl-1-phenylmethane sulfonamide] | 62 | – |
| CNc1ncnc2ccc(-c3ccc(F)c(CN(C)C(=O)c4ccc(C(F)(F)F)cc4F)c3)cc12 [Example 593, 2-fluoro-N-(2-fluoro-5-(4-(methylamino)quinazolin-6-yl)benzyl)-N-methyl-4-(trifluoromethyl)benzamide] | 52 | – |
| CC(=O)N(C)Cc1cc(-c2ccc3ncnc(NCc4ccccc4)c3c2)ccc1F [Example 595, N-(5-(4-(benzylamino)quinazolin-6-yl)-2-fluorobenzyl)-N-methylacetamide] | 53 | – |
| Cc1nc(NC2CC2)c2cc(-c3ccc(F)c(CN(C(=O)CCc4ccccc4)C4CC4)c3)ccc2n1 [Example 601, N-cyclopropyl-N-(5-(4-(cyclopropylamino)-2-methylquinazolin-6-yl)-2-fluorobenzyl)-3-phenylpropanamide] | 78 | – |
| Cc1nc(NC2CC2)c2cc(-c3ccc(F)c(CN(C(=O)c4ccccn4)C4CC4)c3)ccc2n1 [Example 604, N-cyclopropyl-N-(5-(4-(cyclopropylamino)-2-methylquinazolin-6-yl)-2-fluorobenzyl)picolinamide] | 41 | – |
| Cc1nc(C(=O)N(Cc2cc(-c3ccc4ncnc(NC5CC5)c4c3)ccc2F)C2CC2)cs1 [Example 605, N-cyclopropyl-N-(5-(4-(cyclopropylamino)quinazolin-6-yl)-2-fluorobenzyl)-2-methylthiazole-4-carboxamide] | 94 | – |

| Compound | inhibition at 10 µM [%] | % Inhibition of mGluR5 Receptor (pig) [^3H]-MPEP Bond at 10 μM [%] |
| --- | --- | --- |
| Cc1nc(NC2CC2)c2cc(-c3ccc(F)c(CN(C(=O)c4ccncc4)C4CC4)c3)ccc2n1 [Example 608, N-cyclopropyl-N-(5-(4-(cyclopropylamino)-2-methylquinazolin-6-yl)-2-fluorobenzyl)isonicotinamide] | 36 | – |
| Cc1nc(C(=O)N(Cc2cccc(-c3ccc4ncnc(NCCc5ccccc5)c4c3)c2)C2CC2)cs1 [Example 609, N-cyclopropyl-2-methyl-N-(3-(4-(phenethylamino)quinazolin-6-yl)benzyl)thiazole-4-carboxamide] | 30 | – |
| O=C(c1ccc(F)cc1F)N(Cc1cccc(-c2cc(F)c3ncnc(NC4CC4)c3c2)c1)C1CC1 [Example 619, N-cyclopropyl-N-(3-(4-(cyclopropylamino)-8-fluoroquinazolin-6-yl)benzyl)-2,4-difluorobenzamide] | 98 | – |
| Cc1nc(NC2CC2)c2cc(-c3ccc(F)c(CN(C(=O)c4csc(C)n4)C4CC4)c3)ccc2n1 [Example 624, N-cyclopropyl-N-(5-(4-(cyclopropylamino)-2-methylquinazolin-6-yl)-2-fluorobenzyl)-2-methylthiazole-4-carboxamide] | 75 | – |
| Cc1nc(NC2CC2)c2cc(-c3ccc(F)c(CN(C(=O)C4CCCCC4)C4CC4)c3)ccc2n1 [Example 639, N-cyclopropyl-N-(5-(4-(cyclopropylamino)-2-methylquinazolin-6-yl)-2-fluorobenzyl)cyclohexane carboxamide] | 46 | – |
| Cc1nc(NC2CC2)c2cc(-c3ccc(F)c(CN(C(=O)Cc4ccccc4)C4CC4)c3)ccc2n1 [Example 644, N-cyclopropyl-N-(5-(4-(cyclopropylamino)-2-methylquinazolin-6-yl)-2-fluorobenzyl)-2-phenylacetamide] | 85 | – |
| CC(C)(C)C(=O)N(Cc1cc(-c2ccc3ncnc(NC4CC4)c3c2)ccc1F)C1CC1 [Example 645, N-cyclopropyl-N-(5-(4-(cyclopropylamino)quinazolin-6-yl)-2-fluorobenzyl)pivalamide] | 90 | – |
| Cc1cc2ncnc(NC3CC3)c2cc1-c1cccc(CN(C(=O)c2cccc(F)c2)C2CC2)c1 [Example 652, N-cyclopropyl-N-(3-(4-(cyclopropylamino)-7-methylquinazolin-6-yl)benzyl)-3-fluorobenzamide] | 93 | – |
| Cc1cc2ncnc(NC3CC3)c2cc1-c1cccc(CN(C(=O)C2CCCCC2)C2CC2)c1 [Example 653, N-cyclopropyl-N-(3-(4-(cyclopropylamino)-7-methylquinazolin-6-yl)benzyl)cyclohexane carboxamide] | 66 | – |
| CCCCC(=O)N(Cc1cccc(-c2cc(F)c3ncnc(NC4CC4)c3c2)c1)C1CC1 [Example 654, N-cyclopropyl-N-(3-(4-(cyclopropylamino)-8-fluoroquinazolin-6-yl)benzyl)pentanamide] | 82 | – |
| COc1ccc(CNc2ncnc3ccc(-c4cccc(CN(C(C)=O)C5CC5)c4)cc23)c(OC)c1 [Example 657, N-cyclopropyl-N-(3-(4-(2,4-dimethoxybenzylamino)quinazolin-6-yl)benzyl)acetamide] | 36 | – |
| COc1ccc(S(=O)(=O)N(Cc2cccc(-c3cc4c(NC5CC5)ncnc4cc3C)c2)C2CC2)cc1 [Example 659, N-cyclopropyl-N-(3-(4-(cyclopropylamino)-7-methylquinazolin-6-yl)benzyl)-4-methoxybenzole sulfonamide] | – | 86 |
| Cc1cc2ncnc(NC3CC3)c2cc1-c1cccc(CN(C(=O)c2ccc(F)cc2F)C2CC2)c1 [Example 660, N-cyclopropyl-N-(3-(4-(cyclopropylamino)-7-methylquinazolin-6-yl)benzyl)-2,4-difluorobenzamide] | 94 | – |
| Cc1cc2ncnc(NC3CC3)c2cc1-c1cccc(CN(C(=O)Cc2ccccc2)C2CC2)c1 [Example 661, N-cyclopropyl-N-(3-(4-(cyclopropylamino)-7-methylquinazolin-6-yl)benzyl)-2-phenylacetamide] | 89 | – |
| O=C(C1CCCCC1)N(Cc1cccc(-c2cc(F)c3ncnc(NC4CC4)c3c2)c1)C1CC1 [Example 662, N-cyclopropyl-N-(3-(4-(cyclopropylamino)-8-fluoroquinazolin-6-yl)benzyl)cyclohexane carboxamide] | 54 | – |
| Cc1nc(NC2CC2)c2cc(-c3cccc(CN(C(=O)c4ccccc4C(F)(F)F)C4CC4)c3)ccc2n1 [Example 666, N-cyclopropyl-N-(3-(4-(cyclopropylamino)-2-methylquinazolin-6-yl)benzyl)-2-(trifluoromethyl)benzamide] | 43 | – |
| Cc1cc2ncnc(NC3CC3)c2cc1-c1cccc(CN(C2CC2)S(=O)(=O)c2ccc(Cl)cc2Cl)c1 [Example 667, 2,4-dichloro-N-cyclopropyl-N-(3-(4-(cyclopropylamino)-7-methylquinazolin-6-yl)benzyl)benzole sulfonamide] | – | 40 |
